These results are taken from US12478680B2, “Hydrogels with biodegradable crosslinking” (ProLynx LLC, priority 2011, dated 2025).

The conditions of this data set: pH 7.4.

For the substance carbonic anhydrase, the “t1/2 for release into solution” value was found to be 24 min.
The result for myoglobin reads roughly 20 min.
